Patent US20240018145A1, “[…]-DEPENDENT EN[…] TREATING OR […]” (priority 2020, published 2024)

system: FLU A (PR/8/34); test: Flu A Neuraminidase Antiviral Assay; type: cell-based; conditions: not given

Row | SMILES | EC50 [nM]
1 | CN1C(=O)c2c(O)c(=O)ccn2N2C1CCCC21CCc2ccccc21 (single isomer, unassigned) [Compound 21A, 7-hydroxy-5-methyl-2′,3,3′,4,4a,5-hexahydro-2H-spiro[dipyrido[1,2-b:2′,1′-f][1,2,4]triazine-1,1′-indene]-6,8-dione] | > 8100
2 | CCN1C(=O)c2c(O)c(=O)ccn2N2C(c3ccccc3)C(CC3(C(F)(F)F)CC3)CCC12 (single isomer, unassigned) [Compound 97B, 5-ethyl-7-hydroxy-1-phenyl-2-((1-(trifluoromethyl)cyclopropyl)methyl)-1,2,3,4,4a,5-hexahydrodipyrido[1,2-b:2′,1′-f][1,2,4]triazine-6,8-dione] | 24.2
3 | CN1C(=O)c2c(O)c(=O)ccn2N2C1CCC1(CCC(C(F)(F)F)CC1)C2c1ccccc1 (single isomer, unassigned) [Compound 73A, 7′-hydroxy-5′-methyl-1′-phenyl-4-(trifluoromethyl)-3′,4′,4a′,5′-tetrahydro-1′H-spiro[cyclohexane-1,2′-dipyrido[1,2-b:2′,1′-f][1,2,4]triazine]-6′,8′-dione] | > 810
4 | CCN1C(=O)c2c(O)c(=O)ccn2N2C1CCCC2(C)c1cccc(C)n1 (single isomer, unassigned) [Compound 53B, 5-ethyl-7-hydroxy-1-methyl-1-(6-methylpyridin-2-yl)-1,2,3,4,4a,5-hexahydrodipyrido[1,2-b:2′,1′-f][1,2,4]triazine-6,8-dione] | 8.3
5 | CCCC1CCC2N(C)C(=O)c3c(O)c(=O)ccn3N2C1(C)c1ccccc1 (single isomer, unassigned) [Compound 33A, 7-hydroxy-1,5-dimethyl-1-phenyl-2-propyl-1,2,3,4,4a,5-hexahydrodipyrido[1,2-b:2′,1′-f][1,2,4]triazine-6,8-dione] | 49.5
6 | CN1C(=O)c2c(O)c(=O)ccn2N2C(c3ccccc3)C(C3CCC(F)(F)CC3)CCC12 (single isomer, unassigned) [Compound 84A, 2-(4,4-difluorocyclohexyl)-7-hydroxy-5-methyl-1-phenyl-1,2,3,4,4a,5-hexahydrodipyrido[1,2-b:2′,1′-f][1,2,4]triazine-6,8-dione] | > 810
7 | CCN1C(=O)c2c(O)c(=O)ccn2N2C(c3ccccc3)C(c3ccc(F)c(F)c3)CCC12 (single isomer, unassigned) [Compound 94B, 2-(3,4-difluorophenyl)-5-ethyl-7-hydroxy-1-phenyl-1,2,3,4,4a,5-hexahydrodipyrido[1,2-b:2′,1′-f][1,2,4]triazine-6,8-dione] | 8.6
8 | CN1C(=O)c2c(O)c(=O)ccn2N2C(c3cc(F)ccc3OC(F)F)CCCC12 (single isomer, unassigned) [Compound 17B, 1-(2-(difluoromethoxy)-5-fluorophenyl)-7-hydroxy-5-methyl-1,2,3,4,4a,5-hexahydrodipyrido[1,2-b:2′,1′-f][1,2,4]triazine-6,8-dione] | 103
9 | CN1C(=O)c2c(O)c(=O)ccn2N2C(c3ccccc3F)CCCC12 (single isomer, unassigned) [Compound 8A, 1-(2-fluorophenyl)-7-hydroxy-5-methyl-1,2,3,4,4a,5-hexahydrodipyrido[1,2-b:2′,1′-f][1,2,4]triazine-6,8-dione] | > 8100
10 | CN1C(=O)c2c(O)c(=O)ccn2N2C(c3ccccc3)C3CCC(C3)C12 (single isomer, unassigned) [Compound 9B, 4-hydroxy-6-methyl-11-phenyl-6a,7,8,9,10,11-hexahydro-3H-7,10-methanopyrido[1′,2′:1,6][1,2,4]triazino[2,3-a]azepine-3,5(6H)-dione] | 166
11 | CN1C(=O)c2c(O)c(=O)ccn2N2C(c3ccccc3C3CC3)C(CC(F)(F)F)CCC12 (single isomer, unassigned) [Compound 107B, 1-(2-cyclopropylphenyl)-7-hydroxy-5-methyl-2-(2,2,2-trifluoroethyl)-1,2,3,4,4a,5-hexahydrodipyrido[1,2-b:2′,1′-f][1,2,4]triazine-6,8-dione] | 14.4
12 | CN1C(=O)c2c(O)c(=O)ccn2N2C1CCC(O)C2(C)c1ccccc1 (centres unmarked) [Compound 137A, 2,7-dihydroxy-1,5-dimethyl-1-phenyl-1,2,3,4,4a,5-hexahydrodipyrido[1,2-b:2′,1′-f][1,2,4]triazine-6,8-dione] | 790
13 | CCCC1CCC2N(C)C(=O)c3c(O)c(=O)ccn3N2C1c1ccccc1C (single isomer, unassigned) [Compound 92A, 7-hydroxy-5-methyl-2-propyl-1-(o-tolyl)-1,2,3,4,4a,5-hexahydrodipyrido[1,2-b:2′,1′-f][1,2,4]triazine-6,8-dione] | 4570
14 | CC1(c2ccccc2)CCCC2N(CC3CC3)C(=O)c3c(O)c(=O)ccn3N21 (single isomer, unassigned) [Compound 37A, 5-(cyclopropylmethyl)-7-hydroxy-1-methyl-1-phenyl-1,2,3,4,4a,5-hexahydrodipyrido[1,2-b:2′,1′-f][1,2,4]triazine-6,8-dione] | 11.4
15 | O=C1c2c(O)c(=O)ccn2N2C(c3ccccc3)C(CC3(C(F)(F)F)CC3)CCC2N1CC1CC1 (single isomer, unassigned) [Compound 90B, 5-(cyclopropylmethyl)-7-hydroxy-1-phenyl-2-((1-(trifluoromethyl)cyclopropyl)methyl)-1,2,3,4,4a,5-hexahydrodipyrido[1,2-b:2′,1′-f][1,2,4]triazine-6,8-dione] | 29.3
16 | CC(C1CCC2N(C)C(=O)c3c(O)c(=O)ccn3N2C1c1ccccc1)C(F)(F)F (single isomer, unassigned) [Compound 109A, 7-hydroxy-5-methyl-1-phenyl-2-(1,1,1-trifluoropropan-2-yl)-1,2,3,4,4a,5-hexahydrodipyrido[1,2-b:2′,1′-f][1,2,4]triazine-6,8-dione] | 803
17 | Cc1ccccc1C1C(CCC(F)F)CCC2N(C)C(=O)c3c(O)c(=O)ccn3N12 (single isomer, unassigned) [Compound 103B, 2-(3,3-difluoropropyl)-7-hydroxy-5-methyl-1-(o-tolyl)-1,2,3,4,4a,5-hexahydrodipyrido[1,2-b:2′,1′-f][1,2,4]triazine-6,8-dione] | 5.3
18 | Cc1ccccc1C1C(CC(F)(F)F)CCC2N(C)C(=O)c3c(O)c(=O)ccn3N12 (single isomer, unassigned) [Compound 120A, 7-hydroxy-5-methyl-1-(o-tolyl)-2-(2,2,2-trifluoroethyl)-1,2,3,4,4a,5-hexahydrodipyrido[1,2-b:2′,1′-f][1,2,4]triazine-6,8-dione] | 2720
19 | CCN1C(=O)c2c(O)c(=O)ccn2N2C1CCCC2(C)c1ccccc1 (single isomer, unassigned) [Compound 36B, 5-ethyl-7-hydroxy-1-methyl-1-phenyl-1,2,3,4,4a,5-hexahydrodipyrido[1,2-b:2′,1′-f][1,2,4]triazine-6,8-dione] | 1290
20 | CN1C(=O)c2c(O)c(=O)ccn2N2C1CCC2(C)c1ccccc1 (single isomer, unassigned) [Compound 61B, 6-hydroxy-1,4-dimethyl-1-phenyl-2,3,3a,4-tetrahydro-1H-pyrido[2,1-f]pyrrolo[1,2-b][1,2,4]triazine-5,7-dione] | 2730
21 | Cc1cccnc1C1(C)CCCC2N(CC(F)(F)F)C(=O)c3c(O)c(=O)ccn3N21 (single isomer, unassigned) [Compound 44A, 7-hydroxy-1-methyl-1-(3-methylpyridin-2-yl)-5-(2,2,2-trifluoroethyl)-1,2,3,4,4a,5-hexahydrodipyrido[1,2-b:2′,1′-f][1,2,4]triazine-6,8-dione] | > 8100
22 | CC1(c2ccccc2)CCCC2N(CC3CC3)C(=O)c3c(O)c(=O)ccn3N21 (single isomer, unassigned) [Compound 37B, 5-(cyclopropylmethyl)-7-hydroxy-1-methyl-1-phenyl-1,2,3,4,4a,5-hexahydrodipyrido[1,2-b:2′,1′-f][1,2,4]triazine-6,8-dione] | 1240
23 | CN1C(=O)c2c(O)c(=O)ccn2N2C1CCCC2(C)c1cccc(F)c1 (single isomer, unassigned) [Compound 25B, 1-(3-fluorophenyl)-7-hydroxy-1,5-dimethyl-1,2,3,4,4a,5-hexahydrodipyrido[1,2-b:2′,1′-f][1,2,4]triazine-6,8-dione] | 70.7
24 | COc1ccccc1C1C(CC(F)(F)F)CCC2N(C)C(=O)c3c(O)c(=O)ccn3N12 (single isomer, unassigned) [Compound 125A, 7-hydroxy-1-(2-methoxyphenyl)-5-methyl-2-(2,2,2-trifluoroethyl)-1,2,3,4,4a,5-hexahydrodipyrido[1,2-b:2′,1′-f][1,2,4]triazine-6,8-dione] | 1020

same assay, conditions: MDCK, 48 h

Row | SMILES | EC50 [nM]
25 | CN1C(=O)c2c(OCc3ccccc3)c(=O)ccn2N2C(c3ccccc3)CCCCCC12 (centres unmarked) [Compound 58A, 4-(benzyloxy)-6-methyl-12-phenyl-6,6a,7,8,9,10,11,12-octahydropyrido[1′,2′:1,6][1,2,4]triazino[2,3-a]azocine-3,5-dione] | > 8100
26 | CN1C(=O)c2c(O)c(=O)ccn2N2C1CC[C@H]1CCc3ccccc3[C@H]12 (stereo partly drawn) [Compound 150, Cis-16-hydroxy-2-methyl-2,2a,3,4,4a,5,6,10b-octahydrobenzo[h]pyrido[1′,2′:1,6][1,2,4]triazino[2,3-a]quinoline-1,15-dione] | 69.6
27 | COCCCO[C@@H]1CC[C@H]2N(C)C(=O)c3c(O)c(=O)ccn3N2[C@@H]1c1ccccc1 [Compound 163, (1R,2R,4aS)-7-hydroxy-2-(3-methoxypropoxy)-5-methyl-1-phenyl-1,2,3,4,4a,5-hexahydrodipyrido[1,2-b:2′,1′-f][1,2,4]triazine-6,8-dione] | 270
28 | CCC1(c2ccccc2)CCC2N(C)C(=O)c3c(O)c(=O)ccn3N21 (centres unmarked) [Compound 62A, 1-ethyl-6-hydroxy-4-methyl-1-phenyl-2,3,3a,4-tetrahydro-1H-pyrido[2,1-f]pyrrolo[1,2-b][1,2,4]triazine-5,7-dione] | > 8100
29 | CN1C(=O)c2c(O)c(=O)ccn2N2[C@H](c3ccccc3)[C@H](OCCF)CC[C@@H]12 [Compound 162, (1R,2R,4aS)-2-(2-fluoroethoxy)-7-hydroxy-5-methyl-1-phenyl-1,2,3,4,4a,5-hexahydrodipyrido[1,2-b:2′,1′-f][1,2,4]triazine-6,8-dione] | 195
